Assay results as given in article PMC6222781, “Structural Optimization of Foldamer-Dendrimer Conjugates as Multivalent Agents against the Toxic Effects of Amyloid Beta Oligomers” (Molecules : A Journal of Synthetic Chemistry and Natural …, 2018).
Where two headings read alike, the source gives them in different places.

Target: T1, Aβ oligomers (Homo sapiens, UniProt P05067)
T1 construct: Ser^26 depsipeptide iso-Aβ (1–42) was used; made in house; host or cells: chemical peptide synthesis (no expression host)
Test: Isothermal titration calorimetry (ITC) binding to Aβ oligomers
Settings: PBS pH 7.4, 285 K; for Kd: Aβ 100 µM in cell, ligand 250 µM in syringe, two independent site model; for ΔG, first binding stage / ΔH, first binding stage / ΔG, second binding stage / ΔH, second binding stage: ITC
Description: The binding affinities of 2b–2i to Aβ oligomers were tested in ITC experiments.
In this work, Ser^26 depsipeptide iso-Aβ (1–42) was used, which was synthesized and purified as described previously. The lyophilized iso-Aβ (1–42) was dissolved in MilliQ water to a concentration of 1 mg mL^−1, sonicated for 3 min and the pH was set to 7.0 to initiate an O to N acyl migration, whereby the native sequence can be readily formed. The sample was incubated at room temperature for 10 min. Then the pH was set to 11 and the sample was kept at room temperature for additional 2 h. After the incubation, the Aβ stock solution was aliquoted and stored at −20 °C until use. To obtain Aβ oligomers, the 1 mg mL^−1 aliquot was diluted to a final concentration of 50 μM with 26.67 mM PBS and the pH was set to 7.4 with 1 M HCl. The sample was incubated at 37 °C for 3 h.
Isothermal calorimetric titrations were performed with a Microcal VP-ITC microcalorimeter in pH 7.4 PBS buffer solution. In individual titrations, 10 µL portions of the ligand containing solution were repeatedly injected from the computer-controlled 300-µL microsyringe at intervals of 300 s into the Aβ oligomer solution prepared in the same buffer as the ligand. All measurements were carried out at 285 K. The Aβ concentration in the cell was 100 µM and the total ligand concentration was 250 µM in the syringe and the titration was stopped when the precipitation of the Aβ aggregates became excessive. Control experiments were performed by injecting the ligand into a cell containing buffer with no target, and the heats of dilution were subtracted from those measured in the presence of Aβ. The experimental data were fitted to the two independent site binding models by using a nonlinear least-squares procedure, with ΔHb, ΔHb’, Kd, Kd’ ([…]), n and n’ (number of binding sites for monomer), as adjustable parameters.

[1] = KD, first binding stage, Table 2
[2] = KD, second binding stage, Table 2

T1 sequence (P05067 672-713 limits assumed): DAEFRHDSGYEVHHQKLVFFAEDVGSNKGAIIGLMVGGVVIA

SMILES | Kd [1] [µM] | Kd [2] [µM] | ΔG, first binding stage (Table 2, first binding stage) [kcal/M] | ΔH, first binding stage (Table 2, first binding stage) [kcal/M] | ΔG, second binding stage (Table 2, second binding stage) [kcal/M] | ΔH, second binding stage (Table 2, second binding stage) [kcal/M] | also measured
N=C(N)NCCC[C@@H](CC(=O)N[C@H]1CCCC[C@@H]1C(=O)N[C@H]1CCCC[C@@H]1C(=O)N[C@@H](CC(=O)O)CC(=O)N[C@H]1CCCC[C@@H]1C(=O)NCC(=O)NCC(=O)N[C@@H](CSC1CC(=O)N(CCC(=O)NCCNC(=O)CCN(CCC(=O)NCCNC(=O)CCN2C(=O)CC(SC[C@H](NC(=O)CNC(=O)CNC(=O)[C@H]3CCCC[C@@H]3NC(=O)C[C@H](CC(=O)O)NC(=O)[C@H]3CCCC[C@@H]3NC(=O)[C@H]3CCCC[C@@H]3NC(=O)C[C@H](CCCNC(=N)N)NC(=O)[C@H]3CCCC[C@@H]3N)C(N)=O)C2=O)CCN(CCC(=O)NCCNC(=O)CCN2C(=O)CC(SC[C@H](NC(=O)CNC(=O)CNC(=O)[C@H]3CCCC[C@@H]3NC(=O)C[C@H](CC(=O)O)NC(=O)[C@H]3CCCC[C@@H]3NC(=O)[C@H]3CCCC[C@@H]3NC(=O)C[C@H](CCCNC(=N)N)NC(=O)[C@H]3CCCC[C@@H]3N)C(N)=O)C2=O)CCC(=O)NCCNC(=O)CCN2C(=O)CC(SC[C@H](NC(=O)CNC(=O)CNC(=O)[C@H]3CCCC[C@@H]3NC(=O)C[C@H](CC(=O)O)NC(=O)[C@H]3CCCC[C@@H]3NC(=O)[C@H]3CCCC[C@@H]3NC(=O)C[C@H](CCCNC(=N)N)NC(=O)[C@H]3CCCC[C@@H]3N)C(N)=O)C2=O)C1=O)C(N)=O)NC(=O)[C@H]1CCCC[C@@H]1N (stereo partly shown) [Compound 5] | 0.0069 ± 0.0014 | 0.281 ± 0.0387 | – | – | – | – | –
N=C(N)NCCC[C@@H](CC(=O)N[C@H]1CCCC[C@@H]1C(=O)N[C@H]1CCCC[C@@H]1C(=O)N[C@@H](CC(=O)O)CC(=O)N[C@H]1CCCC[C@@H]1C(=O)NCC(=O)NCC(=O)N[C@@H](CSC1CC(=O)N(CCC(=O)NCCCCC(=O)NCCN(CCNC(=O)CCCCNC(=O)CCN2C(=O)CC(SC[C@H](NC(=O)CNC(=O)CNC(=O)[C@H]3CCCC[C@@H]3NC(=O)C[C@H](CC(=O)O)NC(=O)[C@H]3CCCC[C@@H]3NC(=O)[C@H]3CCCC[C@@H]3NC(=O)C[C@H](CCCNC(=N)N)NC(=O)[C@H]3CCCC[C@@H]3N)C(N)=O)C2=O)CCNC(=O)CCCCNC(=O)CCN2C(=O)CC(SC[C@H](NC(=O)CNC(=O)CNC(=O)[C@H]3CCCC[C@@H]3NC(=O)C[C@H](CC(=O)O)NC(=O)[C@H]3CCCC[C@@H]3NC(=O)[C@H]3CCCC[C@@H]3NC(=O)C[C@H](CCCNC(=N)N)NC(=O)[C@H]3CCCC[C@@H]3N)C(N)=O)C2=O)C1=O)C(N)=O)NC(=O)[C@H]1CCCC[C@@H]1N (stereo partly shown) [Compound 4] | – | – | – | – | – | – | Kd (Table 2, first binding stage, read-out: KD, first binding stage): 0.0185 ± 0.0139 µM; Kd (Table 2, second binding stage, read-out: KD, second binding stage): 0.155 ± 0.131 µM
CC(=O)N[C@@H](CCCCNC(=O)CCN1C(=O)CC(SC[C@H](NC(=O)CNC(=O)CNC(=O)[C@H]2CCCC[C@@H]2NC(=O)C[C@H](CC(=O)O)NC(=O)[C@H]2CCCC[C@@H]2NC(=O)[C@H]2CCCC[C@@H]2NC(=O)C[C@H](CCCNC(=N)N)NC(=O)[C@H]2CCCC[C@@H]2N)C(N)=O)C1=O)C(=O)NCC(=O)N[C@@H](CCCCNC(=O)CCN1C(=O)CC(SC[C@H](NC(=O)CNC(=O)CNC(=O)[C@H]2CCCC[C@@H]2NC(=O)C[C@H](CC(=O)O)NC(=O)[C@H]2CCCC[C@@H]2NC(=O)[C@H]2CCCC[C@@H]2NC(=O)C[C@H](CCCNC(=N)N)NC(=O)[C@H]2CCCC[C@@H]2N)C(N)=O)C1=O)C(=O)NCC(=O)N[C@@H](CCCCNC(=O)CCN1C(=O)CC(SC[C@H](NC(=O)CNC(=O)CNC(=O)[C@H]2CCCC[C@@H]2NC(=O)C[C@H](CC(=O)O)NC(=O)[C@H]2CCCC[C@@H]2NC(=O)[C@H]2CCCC[C@@H]2NC(=O)C[C@H](CCCNC(=N)N)NC(=O)[C@H]2CCCC[C@@H]2N)C(N)=O)C1=O)C(=O)NCC(=O)N[C@@H](CCCCNC(=O)CCN1C(=O)CC(SC[C@H](NC(=O)CNC(=O)CNC(=O)[C@H]2CCCC[C@@H]2NC(=O)C[C@H](CC(=O)O)NC(=O)[C@H]2CCCC[C@@H]2NC(=O)[C@H]2CCCC[C@@H]2NC(=O)C[C@H](CCCNC(=N)N)NC(=O)[C@H]2CCCC[C@@H]2N)C(N)=O)C1=O)C(N)=O (stereo partly shown) [Compound 8] | – | – | -11.07 | 2.31 | -8.48 | 0.51 | –
CC1(C)[C@H]2C[C@H](NC(=O)C[C@H](CCCNC(=N)N)NC(=O)[C@H]3CCCC[C@@H]3N)[C@@H](C(=O)N[C@H]3CCCC[C@@H]3C(=O)N[C@@H](CC(=O)O)CC(=O)N[C@H]3CCCC[C@@H]3C(=O)NCC(=O)NCC(=O)N[C@@H](CSC3CC(=O)N(CCC(=O)NCCCC[C@H](NC(=O)CCN4C(=O)CC(SC[C@H](NC(=O)CNC(=O)CNC(=O)[C@H]5CCCC[C@@H]5NC(=O)C[C@H](CC(=O)O)NC(=O)[C@H]5CCCC[C@@H]5NC(=O)[C@@H]5[C@@H](NC(=O)C[C@H](CCCNC(=N)N)NC(=O)[C@H]6CCCC[C@@H]6N)C[C@H]6C[C@@H]5C6(C)C)C(N)=O)C4=O)C(=O)NCCCC[C@H](NC(=O)[C@H](CCCCNC(=O)CCN4C(=O)CC(SC[C@H](NC(=O)CNC(=O)CNC(=O)[C@H]5CCCC[C@@H]5NC(=O)C[C@H](CC(=O)O)NC(=O)[C@H]5CCCC[C@@H]5NC(=O)[C@@H]5[C@@H](NC(=O)C[C@H](CCCNC(=N)N)NC(=O)[C@H]6CCCC[C@@H]6N)C[C@H]6C[C@@H]5C6(C)C)C(N)=O)C4=O)NC(=O)CCN4C(=O)CC(SC[C@H](NC(=O)CNC(=O)CNC(=O)[C@H]5CCCC[C@@H]5NC(=O)C[C@H](CC(=O)O)NC(=O)[C@H]5CCCC[C@@H]5NC(=O)[C@@H]5[C@@H](NC(=O)C[C@H](CCCNC(=N)N)NC(=O)[C@H]6CCCC[C@@H]6N)C[C@H]6C[C@@H]5C6(C)C)C(N)=O)C4=O)C(=O)N[C@@H](CCCCNC(=O)CCCC[C@@H]4SC[C@@H]5NC(=O)N[C@@H]54)C(N)=O)C3=O)C(N)=O)[C@@H]1C2 (stereo partly shown) [Compound 2g] | – | – | – | – | – | – | Kd (KD ITC, first binding stage, Table 1): 0.0341 ± 0.01 µM; Kd (KD ITC, second binding stage, Table 1): 0.652 ± 0.158 µM
N=C(N)NCCC[C@@H](CC(=O)N[C@H]1CCCC[C@@H]1C(=O)N[C@H]1CCCC[C@@H]1C(=O)N[C@@H](CC(=O)O)CC(=O)N[C@H]1CCCC[C@@H]1C(=O)NCC(=O)NCC(=O)N[C@@H](CSSC[C@H](NC(=O)CNC(=O)CNC(=O)[C@H]1CCCC[C@@H]1NC(=O)C[C@H](CC(=O)O)NC(=O)[C@H]1CCCC[C@@H]1NC(=O)[C@H]1CCCC[C@@H]1NC(=O)C[C@H](CCCNC(=N)N)NC(=O)[C@H]1CCCC[C@@H]1NC(=O)CCC(=O)NCCOCCOCCNC(=O)[C@H]1CCCC[C@@H]1NC(=O)C[C@H](CC(=O)O)NC(=O)[C@H]1CCCC[C@@H]1NC(=O)[C@H]1CCCC[C@@H]1NC(=O)C[C@H](CCCNC(=N)N)NC(=O)[C@H]1CCCC[C@@H]1N)C(N)=O)C(N)=O)NC(=O)[C@H]1CCCC[C@@H]1NC(=O)CCC(=O)NCCOCCOCCNC(=O)[C@H]1CCCC[C@@H]1NC(=O)C[C@H](CC(=O)O)NC(=O)[C@H]1CCCC[C@@H]1NC(=O)[C@H]1CCCC[C@@H]1NC(=O)C[C@H](CCCNC(=N)N)NC(=O)[C@H]1CCCC[C@@H]1N [Compound 9] | – | – | -9.83 | 6.01 | -8.48 | 1.18 | –
N=C(N)NCCC[C@@H](CC(=O)N[C@H]1CCCC[C@@H]1C(=O)N[C@H]1CCCC[C@@H]1C(=O)N[C@@H](CC(=O)O)CC(=O)N[C@H]1CCCC[C@@H]1C(=O)NCC(=O)NCC(=O)N[C@@H](CSC1CC(=O)N(CCC(=O)NCCCC[C@H](NC(=O)CCN2C(=O)CC(SC[C@H](NC(=O)CNC(=O)CNC(=O)[C@H]3CCCC[C@@H]3NC(=O)C[C@H](CC(=O)O)NC(=O)[C@H]3CCCC[C@@H]3NC(=O)[C@H]3CCCC[C@@H]3NC(=O)C[C@H](CCCNC(=N)N)NC(=O)[C@H]3CCCC[C@@H]3N)C(N)=O)C2=O)C(=O)NCCCC[C@H](NC(=O)[C@H](CCCCNC(=O)CCN2C(=O)CC(SC[C@H](NC(=O)CNC(=O)CNC(=O)[C@H]3CCCC[C@@H]3NC(=O)C[C@H](CC(=O)O)NC(=O)[C@H]3CCCC[C@@H]3NC(=O)[C@H]3CCCC[C@@H]3NC(=O)C[C@H](CCCNC(=N)N)NC(=O)[C@H]3CCCC[C@@H]3N)C(N)=O)C2=O)NC(=O)CCN2C(=O)CC(SC[C@H](NC(=O)CNC(=O)CNC(=O)[C@H]3CCCC[C@@H]3NC(=O)C[C@H](CC(=O)O)NC(=O)[C@H]3CCCC[C@@H]3NC(=O)[C@H]3CCCC[C@@H]3NC(=O)C[C@H](CCCNC(=N)N)NC(=O)[C@H]3CCCC[C@@H]3N)C(N)=O)C2=O)C(=O)NCC(N)=O)C1=O)C(N)=O)NC(=O)[C@H]1CCCC[C@@H]1N (stereo partly shown) [Compound 7] | 0.0162 ± 0.0089 | 0.128 ± 0.0567 | – | – | – | – | –
